Test results from patent US20250019644A1, “Quantitatively Mapping Amino Acid Properties (QMAP) Cell Culture Media” (UNIVERSITY OF IOWA RESEARCH FOUNDATION, priority 2023, published 2025).

Experiments:
Type in all cases: cell-based, human
293T = assay: CellTiter-Glo Luminescent Cell Viability Assay; settings: 2-fold dilution series, 48 hours, QMAP
Method: (§1) HT29, 293T, U2OS, and 3T3-LI cells were plated on an opaque 96-well plate in 1:1 DMEM. […] At the appropriate time point, 100 μl of CellTiter-Glo reagent (Promega #G7570) was added to each well. The plate was gently mixed for 2 minutes to induce lysis, incubated at room-temperature for 10 minutes, and then luminescence was measured.
(§2) To test whether tryptophan inhibition of growth applied to other cell lines and persisted in conventional cell culture media, two human cancer cell lines (HT29, U2OS), a transformed human embryonic kidney cell line (293T), and a mouse, fibroblast-like cell line (3T3-L1) were grown in DMEM for 24 hours and then treated with 2 mM tryptophan or vehicle. After 24 hours, cells were assayed by CellTiter-Glo, which indicates cell viability by measuring ATP production.

U2OS = assay: CellTiter-Glo Luminescent Cell Viability Assay; settings: 2-fold dilution series, 48 hours, QMAP
Method: as §1
as §2, with “After 24 hours, cells were assayed by CellTiter-Glo, which indicates cell viability by measuring ATP production.” left out

HCT116 cells [1] = assay: Activity metabolomics screen of tryptophan metabolites, GC-MS profiling; settings: 2 mM, 6 hours, QMAP
Method: (§3) 6-well plates were treated for 6 hours with 2 mM of the indicated tryptophan metabolite for 6 hours before media was quickly removed, and plates were washed 2× with ice-cold PBS and 2× with ice-cold water before being snap frozen with liquid nitrogen. Cell plates were lyophilized overnight before metabolite extraction. To extract metabolites, 1 ml of an extraction buffer composed of 2:2:1 methanol/acetonitrile/water with internal standards at 1 μg/ml each (D4-Citric Acid, 13C5-Glutamine, 13C5-Glutamic Acid, 13C6-Lysine, 13C5-Methionine, 13C3-Serine, D4-Succinic Acid, 13C11-Tryptophan, and D8-Valine; Cambridge Isotope Laboratories) was added to the lyophilized cell samples. Cells were scraped for 20 seconds and collected into Eppendorf tubes, flash-frozen in liquid nitrogen, and sonicated for 10 minutes.
(§4) Samples were then placed on a rotating platform at −20° C. for 1 hour and centrifuged at 4° C. for 10 minutes at 21,000×g. 300 μL of the cleared metabolite extracts were transferred to fresh tubes for additional processing. An equal volume of each extract was pooled to serve as a quality control (QC) sample, which was analyzed at the beginning, end, and at a regular interval throughout an instrument run. Extraction buffer alone was analyzed as a processing blank sample. Metabolite extracts, the quality control sample, and the processing blank were evaporated to dryness using a speed-vacuum.
The dried metabolite extracts, QC sample, and processing blank sample, were derivatized using methoxyamine hydrochloride (MOX) and N,O-Bis (trimethylsilyl) trifluoroacetamide (TMS) (Sigma). Briefly, dried extracts were reconstituted in 30 μL of 11.4 mg/ml MOX in anhydrous pyridine (VWR), vortexed for 10 minutes, and heated at 60° C. for 1 hour. Next, 20 μL TMS was added to each reconstituted extract, vortexed for 1 minute, and heated at 60° C. for 30 min. The derivatized metabolite extracts, blanks, and QC were immediately analyzed using GC/MS.
GC chromatographic separation was conducted on a Thermo Trace 1300 GC with a TraceGold TG-5SilMS column (0.25 μM film thickness; 0.25 mm ID; 30 m length). An injection volume of 1 μL was used for all samples, blanks, and QCs. The GC was operated in split mode with the following settings: 20:1 split ratio; split flow: […], purge flow: 5 mL/min, Carrier mode: Constant Flow, Carrier flow rate: 1.2 mL/min). The GC inlet temperature was 250° C. The GC oven temperature gradient was as follows: 80° C. for 3 min, ramped at 20° C./min to a maximum temperature of 280° C., which was held for 8 min. The injection syringe was washed 3 times with pyridine between each sample. Metabolites were detected using a Thermo ISQ single quadrupole mass spectrometer. The data was acquired from 3.90 to 21.00 min in EI mode (70eV) by single ion monitoring (SIM).
(§5) Acquired LC-MS and GC-MS data were processed using the Thermo Scientific TraceFinder software. Targeted metabolites were identified by matching accurate mass and retention times to the University of Iowa Metabolomics Core Facility's in-house library of confirmed standards. After peak area integration by TraceFinder, NOREVA software was applied for signal drift correction on a metabolite-to-metabolite basis using the pooled QC sample that had been analyzed throughout the instrument run. Within individual samples, Post-NOREVA metabolite levels were divided by the total metabolite load (sum of all metabolite values) to equally weight individual metabolites for comparison across samples.

HCT116 cells [2] = assay: Metabolic profiling of tryptophan metabolite-treated cells, LC-MS; settings: 6 hours, QMAP
Method: as §3, with “6-well plates were treated for 6 hours with 2 mM of the indicated tryptophan metabolite for 6 hours before media was quickly removed, and plates were washed 2× with ice-cold PBS and 2× with ice-cold water before being snap frozen with liquid nitrogen.” left out
as §4
Dried extracts were reconstituted in 30 μL of acetonitrile/water (1:1, V/V), vortexed for 10 minutes, and incubated at −20° C. for 18 hours. Samples were then centrifuged at 4° C. for 2 minutes at 21,000×g and the supernatant was transferred to autosampler vials for analysis.
For LC chromatographic separation, 2 μL of reconstituted metabolite extracts, QC sample, and processing blank were run on a Millipore SeQuant ZIC-PHILIC (2.1×150 mm, 5 um particle size, Millipore Sigma #150460) column with a ZIC-PHILIC guard column (20×2.1 mm, Millipore Sigma #150437) attached to a Thermo Vanquish Flex UHPLC. The mobile phase comprised Buffer A [20 mM (NH4)2CO3, 0.1% NH4OH (v/v)] and Buffer B [acetonitrile]. The chromatographic gradient was run at a flow rate of 0.150 mL/min as follows: 0-20 min-linear gradient from 80 to 20% Buffer B; 20-20.5 min-linear gradient from 20 to 80% Buffer B; and 20.5-28 min-hold at 80% Buffer B. Data were acquired using a Thermo Q Exactive MS operated in full-scan, polarity-switching mode with a spray voltage set to 3.0 kV, the heated capillary held at 275° C., and the HESI probe held at 350° C. The sheath gas flow was set to 40 units, the auxiliary gas flow was set to 15 units, and the sweep gas flow was set to 1 unit. MS data acquisition was performed with polarity switching in a range of m/z 70-1,000, with the resolution set at 70,000, the AGC target at 10e6, and the maximum injection time at 200 ms. The QC sample was analyzed at the beginning and end of the LC-MS run and after every 10 samples.
as §5

HCT116 cells [3] = assay: Screen 2: metabolic profiling with unlabeled amino acids (LC-MS); settings: 6 hours; for increase in intracellular relative abundance of the amino acid used for treatment: 2 mM dose, relative to untreated cells
Method: Media was changed to QMAP plus individual amino acid treatments at the start of the experiment. 200 mM amino acid stocks were used to make the QMAP+individual amino acid treatment medias that were placed in the tissue culture incubator for 30-45 minutes prior to the start of the dosing for equilibration of media bicarbonate with incubator CO2. For metabolomic profiling experiments, cells were treated with additional amino acid doses of 0.5, 1 and 2 mM, and 1 mM was used for stable isotope tracing experiments. To minimize systematic error, each amino acid dose was added as a batch (20 amino acids+vehicle control) such that each well of each plate contained a different amino acid. The process was repeated for the other two concentrations of amino acids on the next plates to make set. This was repeated four more times to achieve the sample size of 5 replicates for each of the 3 doses of amino acids. Each plate was then incubated for 6 hours in the tissue culture incubator before being rapidly washed twice with sterile water and snap frozen on liquid nitrogen before being stored at −80° C. The next day, the plates were lyophilized for 90 minutes and then stored at −80° C.
Extraction buffer was prepared by adding 2:2:1 methanol: acetonitrile: water. For profiling, the following internal standards (Cambridge Isotope Laboratories) were added at 1 μg/mL each: L-Valine-D8, L-Aspartate (^13C4, D3, ^15N) and Succinate (13C4D4). 6-well plates were removed from storage at −80° C. and 1 ml of ice-cold extraction buffer was added. Plates were incubated at −20° C. for 5 minutes, scraped, transferred to microcentrifuge tubes and frozen in liquid nitrogen. Tubes were then placed into a sonicating water bath for 10 minutes and rotated at −20° C. for 1 hour before being centrifuged at 4° C. for 10 minutes at 21,000×g. […] of extract was dried down completely using a speed-vacuum (˜90 min), dissolved in […] of acetonitrile: water (1:1), vortexed for 10 min, and stored overnight at −20° C. to allow protein precipitation. Samples were then centrifuged at 4° C. for 10 minutes at 21,000×g and the supernatants were transferred into autosampler vials for analysis. For the QCs, […] of each extract was pooled, at the step prior to drying down, mixed and dried in […] amounts alongside the samples. Once dried, QCs were processed with the samples but recombined prior to being aliquoted into autosampler vials. All samples were then frozen at −80° C., and only one set of samples, which included a QC aliquot, was thawed, vortexed and placed into the instrument.
The sheath gas flow was set to 40 units, the auxiliary gas flow was set to 15 units and the sweep gas flow was set to 1 unit. […] For tracing, […] of sample was injected twice in either positive or negative mode to maximize detection efficiency and minimize metabolite crowding using the Sim-mode.
LC-MS data was processed using the Thermo Scientific TraceFinder 5.1 software.
The three cell lines were then treated with 0.5, 1, and 2 mM of individual, unlabeled amino acids, and metabolic profiling was performed to determine how individual amino acids quantitatively altered metabolite abundance (Screen 2).

IDO1 mRNA = assay: Quantitative PCR of IDO1 mRNA; settings: 50 ng/μL for 24 hours, HCT116

Nc1c(O)cccc1C(=O)CC(N)C(=O)O (stereo not shown) [3HK, 3-hydroxykynurenine]
cell viability (293T): dose-dependent decrease
cell viability (U2OS): dose-dependent decrease
aconitate level (HCT116 cells [1]): significantly increased
citrate level (HCT116 cells [1]): significantly increased
disruption of TCA cycle metabolites (HCT116 cells [1]): more potent disruption than the other tryptophan metabolites
distal TCA cycle metabolites (HCT116 cells [1]): drastically and significantly decreased
glucose 6-phosphate level (HCT116 cells [1]): Significantly increased
ribose 5-phosphate level (HCT116 cells [1]): Significantly increased
ribulose 5-phosphate level (HCT116 cells [1]): Significantly increased
increase of xanthommatin (HCT116 cells [2]; 2 mM dose): ~70 fold
oxidized glutathione (GSSG) level (HCT116 cells [2]; 2 mM): significantly decreased
reduced glutathione (GSH) level (HCT116 cells [2]; 2 mM): significantly decreased

N[C@@H](CCC(=O)O)C(=O)O [glutamate, L-glutamic acid]
increase in intracellular relative abundance of the amino acid used for treatment (HCT116 cells [3]; HCT116 cells): 1.25 fold
TCA cycle intermediates (HCT116 cells [3]; 0.5, 1, 2 mM): increased

NC(=O)CC[C@H](N)C(=O)O [glutamine, L-glutamine]
increase in intracellular relative abundance of the amino acid used for treatment (HCT116 cells [3]; HCT116 cells): ~80 fold
TCA cycle intermediates (HCT116 cells [3]; 0.5, 1, 2 mM): increased

NCC(=O)O [glycine, L-glycine]
serine level (HCT116 cells [3]; 0.5, 1, 2 mM, HCT116 cells): proportional, dose-dependent increase

N[C@@H](CO)C(=O)O [serine, L-serine]
glycine levels (HCT116 cells [3]; 0.5, 1, 2 mM, HCT116 cells): did not increase

B1: IFN-γ: the known IDO potentiator IFN-γ (protein, UniProt P01579 24-161, looked up)
Interferon gamma: QDPYVKEAENLKKYFNAGHSDVADNGTLFLGILKNWKEESDRKIMQSQIVSFYFKLFKNFKDDQSIQKSVETIKEDMNVKFFNSNKKKRDDFEKLTNYSVTDLNVQRKAIHELIQVMAELSPAAKTGKRKRSQMLFRG
IDO1 mRNA (IDO1 mRNA): increased
